Measurements: PubChem BioAssay AID256 (DTP/NCI, 2004)
“And” between values parts separate entries of the source, which are not always exact repeats. Equal values may be shown once. Inconclusive results and toxic doses are left out. How the source made its calls: active means survival T/C of 150% or more; inactive means T/C below 125% in these data. Non-standard residues stand in square brackets, D forms with d. Residues, ends and D or L forms follow the SMILES beside them. ξ: configuration not given here. *: point of attachment. ξL = CC(C)CC(N)C(=O)O; ClAc = O=C(CCl)*

System: CD2F1 mice, L1210 leukemia ip, survival T/C
Assay: NCI In Vivo Anticancer Drug Screen. Data for tumor model L1210 Leukemia (intraperitoneal) in CD2F1 (CDF1) mice
Details: endpoint: mean survival time, higher = longer survival
Procedure, shortened: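 In this screen, transplantable tumors were grown in mice given either the compound or its vehicle. Results were expressed as the treated measurement relative to the control measurement.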

[1] = dose: 100.0 mg/kg/injection, schedule: Q04DX002 (ip), vehicle: saline with Tween-80
[2] = dose: 200.0 mg/kg/injection, schedule: Q04DX002 (ip), vehicle: saline with Tween-80
[3] = dose: 100.0 mg/kg/injection, schedule: Q01DX009 (ip), vehicle: saline with Tween-80
[4] = dose: 100.0 mg/kg/injection, schedule: Q04DX003 (ip), vehicle: saline with Tween-80
[5] = dose: 200.0 mg/kg/injection, schedule: Q04DX003 (ip), vehicle: saline with Tween-80
[6] = dose: 400.0 mg/kg/injection, schedule: Q04DX003 (ip), vehicle: saline with Tween-80
[7] = dose: 100.0 mg/kg/injection, schedule: Q04DX003 (ip), vehicle: Klucel (hydroxypropylcellulose) (HPC)
[8] = dose: 200.0 mg/kg/injection, schedule: Q04DX003 (ip), vehicle: Klucel (hydroxypropylcellulose) (HPC)
[9] = dose: 400.0 mg/kg/injection, schedule: Q04DX003 (ip), vehicle: Klucel (hydroxypropylcellulose) (HPC)

Measured: T/C

NS(=O)(=O)c1ccc(N2CCCCC2)c([N+](=O)[O-])c1
inactive: dose: 100.0 mg/kg/injection, schedule: Q01DX009 (ip), vehicle: other 95 % of control | [1] 91 % of control | dose: 200.0 mg/kg/injection, schedule: Q01DX009 (ip), vehicle: other 95 % of control | [2] 98 % of control | dose: 400.0 mg/kg/injection, schedule: Q01DX009 (ip), vehicle: other 101 % of control | dose: 400.0 mg/kg/injection, schedule: Q04DX002 (ip), vehicle: saline with Tween-80 100 % of control

S=C(NCCCCCNC(=S)Nc1ccccc1)Nc1ccccc1
inactive: dose: 100.0 mg/kg/injection, schedule: Q04DX003 (ip), vehicle: acetone 96 % of control | dose: 200.0 mg/kg/injection, schedule: Q04DX003 (ip), vehicle: acetone 108 % of control

CC(C)CC(NC(=O)CCl)C(=O)NCC(=O)O (centres undefined) (ClAc-[ξL]-Gly-OH)
inactive: dose: 25.0 mg/kg/injection, schedule: Q01DX009 (ip), vehicle: saline with Tween-80 96 % of control | dose: 50.0 mg/kg/injection, schedule: Q01DX009 (ip), vehicle: saline with Tween-80 96 % of control | [3] 94 % of control

O=[N+]([O-])c1ccc2c(c1)CS(=O)(=O)O2
inactive: [3] 109 % of control | [4] 103 % of control | dose: 200.0 mg/kg/injection, schedule: Q01DX009 (ip), vehicle: saline with Tween-80 107 % of control | [5] 100 % of control | dose: 400.0 mg/kg/injection, schedule: Q01DX009 (ip), vehicle: saline with Tween-80 107 % of control | [6] 95 % of control

CC(=O)NCC(=O)[O][Sn]([c]1ccc(C)cc1)([c]1ccc(C)cc1)[c]1ccc(C)cc1
inactive: dose: 0.19 mg/kg/injection, schedule: Q01DX009 (ip), vehicle: saline 97 % of control | dose: 0.39 mg/kg/injection, schedule: Q01DX009 (ip), vehicle: saline 105 % of control | dose: 0.78 mg/kg/injection, schedule: Q01DX009 (ip), vehicle: saline 103 % of control and 111 % of control | dose: 1.56 mg/kg/injection, schedule: Q01DX009 (ip), vehicle: saline 100 % of control | dose: 3.12 mg/kg/injection, schedule: Q01DX009 (ip), vehicle: saline 91 % of control

CC1(C)CC(O)(Cc2ccccc2)C(O)c2ccccc21 (centres undefined)
inactive: [4] 93 % of control | [5] 97 % of control | [6] 93 % of control

C=C1C(=O)O[C@@H]2C[C@@]3(C)CCC[C@H](C)C3=C[C@H]12
inactive: dose: 100.0 mg/kg/injection, schedule: Q01DX009 (ip), vehicle: saline 98 % of control | dose: 200.0 mg/kg/injection, schedule: Q01DX009 (ip), vehicle: saline 101 % of control

CCC(=O)n1nc(-c2ccccc2)c2ccccc21
inactive: dose: 25.0 mg/kg/injection, schedule: Q04DX002 (ip), vehicle: saline with Tween-80 100 % of control | dose: 50.0 mg/kg/injection, schedule: Q04DX002 (ip), vehicle: saline with Tween-80 88 % of control | [1] 96 % of control | [2] 103 % of control

O=C(C[n+]1ccc2ccccc2c1)c1ccc(Br)cc1
inactive: dose: 12.5 mg/kg/injection, schedule: Q04DX003 (ip), vehicle: saline 98 % of control | dose: 25.0 mg/kg/injection, schedule: Q01DX009 (ip), vehicle: saline 98 % of control | dose: 25.0 mg/kg/injection, schedule: Q04DX003 (ip), vehicle: saline 98 % of control | dose: 50.0 mg/kg/injection, schedule: Q01DX009 (ip), vehicle: saline 102 % of control | dose: 50.0 mg/kg/injection, schedule: Q04DX003 (ip), vehicle: saline 101 % of control | dose: 100.0 mg/kg/injection, schedule: Q04DX003 (ip), vehicle: saline 97 % of control

CC1(C)CSC(=S)N1
inactive: dose: 2.5 mg/kg/injection, schedule: Q01DX009 (ip), vehicle: saline with Tween-80 98 % of control | dose: 5.0 mg/kg/injection, schedule: Q01DX009 (ip), vehicle: saline with Tween-80 95 % of control | dose: 5.0 mg/kg/injection, schedule: Q04DX003 (ip), vehicle: saline with Tween-80 103 % of control | dose: 10.0 mg/kg/injection, schedule: Q01DX009 (ip), vehicle: saline with Tween-80 107 % of control | dose: 10.0 mg/kg/injection, schedule: Q04DX003 (ip), vehicle: saline with Tween-80 92 % of control

ClC(Cl)(Cl)c1nc(C(Cl)(Cl)Cl)nc(C(Cl)(Cl)Cl)n1
inactive: [7] 97 % of control | [8] 87 % of control | [9] 91 % of control

CCCCS(=O)(=O)c1ccc(Cl)cc1
inactive: [4] 96 % of control | [5] 100 % of control | [6] 105 % of control

CCOC(=O)c1ccc(NC(=O)c2ccc(OCCOc3ccc(C(C)(C)CC(C)(C)C)cc3)c(NC(=O)CC(=O)c3cccc([N+](=O)[O-])c3)c2)cc1
inactive: dose: 100.0 mg/kg/injection, schedule: Q01DX009 (ip), vehicle: Klucel (hydroxypropylcellulose) (HPC) 92 % of control | [7] 111 % of control | dose: 200.0 mg/kg/injection, schedule: Q01DX009 (ip), vehicle: Klucel (hydroxypropylcellulose) (HPC) 92 % of control | [8] 100 % of control | dose: 400.0 mg/kg/injection, schedule: Q01DX009 (ip), vehicle: Klucel (hydroxypropylcellulose) (HPC) 103 % of control | [9] 102 % of control
